Here are results for two compounds from patent US6617312B1, “Vasoactive amine binding molecules” (Oxford Vacs Ltd., priority 1996, dated 2003).

For test [1], the target named is Rhipicephalus appendiculatus rMS-HBP1, His6-tagged, SEQ ID NO: 20 (Rhipicephalus appendiculatus, UniProt O77422). The settings on record: ^3H-histamine ~0.3 pmol (11,200 cpm), rMS-HBP1 ~100 pmol, 5 measurements.
Test [2] addresses Rhipicephalus appendiculatus FS-HBP2 (SEQ ID NO: 18) truncated version lacking the 45 N-terminal amino acids, bacterially expressed (Rhipicephalus appendiculatus, UniProt O77421).
For test [3], the target named is Rhipicephalus appendiculatus FS-HBP2 (SEQ ID NO: 18) truncated version lacking the 28 C-terminal amino acids, bacterially expressed (Rhipicephalus appendiculatus, UniProt O77421).
Rhipicephalus appendiculatus FS-HBP2 (SEQ ID NO: 18) truncated version lacking the 28 C-terminal amino acids, bacterially expressed, sequence (O77421 20-162): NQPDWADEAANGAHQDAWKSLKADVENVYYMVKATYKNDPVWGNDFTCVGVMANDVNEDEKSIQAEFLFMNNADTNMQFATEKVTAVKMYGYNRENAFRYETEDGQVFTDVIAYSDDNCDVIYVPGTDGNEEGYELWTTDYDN
In test [4] the target is T1, Rhipicephalus appendiculatus rMS-HBP1, His6-tagged, expressed in Spodoptera frugiperda Sf21 cells (baculovirus), SEQ ID NO: 20 (Rhipicephalus appendiculatus, UniProt O77422).
T1 construct: Gln-Ile-(His)6 (C); made in house; host or cells: Spodoptera frugiperda Sf21 cells (baculovirus BacPak6)
T1 sequence (O77422 19-200, added parts left off): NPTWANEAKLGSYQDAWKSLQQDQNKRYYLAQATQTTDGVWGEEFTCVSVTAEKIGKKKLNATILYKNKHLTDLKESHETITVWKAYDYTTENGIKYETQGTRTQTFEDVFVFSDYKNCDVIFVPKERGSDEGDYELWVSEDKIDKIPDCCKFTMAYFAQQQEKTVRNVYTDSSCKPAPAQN
The test can be described thus: Histamine binding assay (radiolabelled histamine, PEG precipitation, Scatchard), rMS-HBP1. As to the method:
(§1) Construction of clones. FS-HBP1, FS-HBP2 and MS-HBP1 were expressed as histidine-tagged proteins (rFS-HBP1, rFS-HBP2 and rMS-HBP1) in Spodoptera frugiperda ovarian cells (Sf21).
(§2) This plasmid pACC129.1-FS1.HIS was also used for expression of histidine-tagged FS-HBP2 and MS-HBP1. The FS-HBP1 cDNA was deleted using SacI and BamHI thus leaving the histidine codons intact. An upstream SacI and a downstream BglII site (BglII and BamHI create compatible overhangs) were added to the FS-HBP2 and MS-HBP1 coding regions by PCR. […] The forward primer, in the case of FS-HBP2 was: 5′-[…] (SEQ ID NO:5); the reverse primer was: 5′-[…] (SEQ ID NO:6). In the case of MS-HBP1 the forward primer was: 5′-[…] (SEQ ID NO:7), and the reverse primer was: 5′-[…] (SEQ ID NO:8).
(§3) Following PCR, the derived cDNAs were inserted into the vector. A Gln-Ile-(HIS)6 sequence was thus added to the carboxyterminus of the MS-HBP1 translation product, and Ile-(His)6 to the FS-HBP2 translation product.
(§4) The baculovirus expression system was used for expression of the three tagged polypeptides. Spodoptera (Sf21) cells were transfected with the transfer vectors and baculovirus (BacPak6; Clontech). Recombinant virus was amplified as according to Kitts and Possee (1993) BioTechniques 14:810-817). The VABPs are clearly secretion products since they are mainly found in the culture medium of transfected cells as well as in saliva. […]

Test [5] concerns the target T2, Rhipicephalus appendiculatus rFS-HBP2, His6-tagged, expressed in Spodoptera frugiperda Sf21 cells (baculovirus), SEQ ID NO: 18 (Rhipicephalus appendiculatus, UniProt O77421).
T2 construct: Ile-(His)6 (C); made in house; host or cells: Spodoptera frugiperda Sf21 cells (baculovirus BacPak6)
The test can be described thus: Histamine binding assay (radiolabelled histamine, PEG precipitation, Scatchard), rFS-HBP2. As for the experimental part: as §1, §2, §3, §4

The test system of a further test is rVABPs. Kind of test: Competition experiment: displacement of 3H-histamine from rVABPs by histamine-like compounds. The settings on record: cold histamine, reference amount.
Test [6] has as its target T3, Rhipicephalus appendiculatus rFS-HBP1, His6-tagged, expressed in Spodoptera frugiperda Sf21 cells (baculovirus), SEQ ID NO: 16 (Rhipicephalus appendiculatus, UniProt O77420).
T3 construct: Gly-Ile-(His)6 (C); made in house; host or cells: Spodoptera frugiperda Sf21 cells (baculovirus BacPak6)
The test can be described thus: Histamine binding assay (radiolabelled histamine, PEG precipitation, Scatchard), rFS-HBP1. As to the method:
as §1
In order to append the His6 tag, the coding region of FS-HBP1 was first amplified using the polymerase chain reaction (PCR). […] The forward primer used was: 5′-[…] (SEQ ID NO:3); the reverse primer was: 5′-[…] (SEQ ID NO:4). The primers were designed so that a SacI site was added upstream of the start codon, whilst the stop codon was replaced by a BamHI site, followed by 6 histidine codons and an SpeI site comprising a TAG stop codon. The PCR product was cut with SacI and SpeI. The latter enzyme creates a compatible overhang with XbaI, enabling the fragment to be ligated between the SacI and XbaI sites of the pAcC129.1 transfer vector (Livingstone and Jones (1989) Nucleic Acids Res. 17:2366), generating the plasmid pACC129.1-FS1.HIS. This plasmid therefore contained the sequence Gly-Ile-(His)6 appended to the carboxy terminus of the FS-HBP1 translation product.
The baculovirus expression system was used for expression of the three tagged polypeptides. Spodoptera (Sf21) cells were transfected with the transfer vectors and baculovirus (BacPak6; Clontech). Recombinant virus was amplified as according to Kitts and Possee (1993) BioTechniques 14:810-817). […]

The structures appear in SMILES notation.

Rhipicephalus appendiculatus rMS-HBP1, His6-tagged, SEQ ID NO: 20, sequence (O77422 19-200): as the sequence (O77422 19-200, added parts left off) above
Rhipicephalus appendiculatus FS-HBP2 (SEQ ID NO: 18) truncated version lacking the 45 N-terminal amino acids, bacterially expressed, sequence (O77421 65-190): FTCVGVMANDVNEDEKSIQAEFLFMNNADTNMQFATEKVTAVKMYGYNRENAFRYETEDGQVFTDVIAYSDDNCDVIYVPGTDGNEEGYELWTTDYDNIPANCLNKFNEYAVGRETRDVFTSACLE
T3 sequence (O77420 19-190, added parts left off): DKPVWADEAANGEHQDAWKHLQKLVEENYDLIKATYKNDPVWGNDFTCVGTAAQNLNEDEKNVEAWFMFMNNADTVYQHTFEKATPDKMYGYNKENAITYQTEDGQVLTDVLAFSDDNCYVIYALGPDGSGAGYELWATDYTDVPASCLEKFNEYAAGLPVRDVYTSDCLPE
T2 sequence (O77421 20-190, added parts left off): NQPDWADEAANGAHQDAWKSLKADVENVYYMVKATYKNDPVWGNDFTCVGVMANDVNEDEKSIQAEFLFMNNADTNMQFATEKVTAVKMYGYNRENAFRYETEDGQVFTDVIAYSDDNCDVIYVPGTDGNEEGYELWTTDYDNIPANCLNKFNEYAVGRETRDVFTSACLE

For the compound `NCCc1c[nH]cn1` [^3H-histamine], in test [1], the “bound radioligand, without added histamine” value was 6,840±150 cpm.

In the case of `NCCc1c[nH]cn1` [histamine], the binding to histamine entry in test [2] and in test [3] was “do not bind to histamine at all” each time. The dissociation constant (Kd) in test [4] was 1.2 nM; in test [5], 1.7 nM; in test [6], 78 nM. Moreover, in the test with rVABPs, the “displacement of ^3H-histamine from the binding sites” value is given as “more than 95%”. For the same compound, the “bound radioligand, supplemented with histamine” value in test [1] (plus histamine 0.5 pmol) is given as 7,560±110 cpm.
